This note sets out measurements from patent publication US8748429B2, “CGRP receptor antagonists” (Bristol-Myers Squibb Company, priority 2011, dated 2014).

Structures are written as SMILES.

The target of this assay is Human CGRP Receptor (Homo sapiens, UniProt O60894+Q16602). The experiment in a line: Human CGRP Binding.
Chain of Human CGRP Receptor (Q16602 23-461): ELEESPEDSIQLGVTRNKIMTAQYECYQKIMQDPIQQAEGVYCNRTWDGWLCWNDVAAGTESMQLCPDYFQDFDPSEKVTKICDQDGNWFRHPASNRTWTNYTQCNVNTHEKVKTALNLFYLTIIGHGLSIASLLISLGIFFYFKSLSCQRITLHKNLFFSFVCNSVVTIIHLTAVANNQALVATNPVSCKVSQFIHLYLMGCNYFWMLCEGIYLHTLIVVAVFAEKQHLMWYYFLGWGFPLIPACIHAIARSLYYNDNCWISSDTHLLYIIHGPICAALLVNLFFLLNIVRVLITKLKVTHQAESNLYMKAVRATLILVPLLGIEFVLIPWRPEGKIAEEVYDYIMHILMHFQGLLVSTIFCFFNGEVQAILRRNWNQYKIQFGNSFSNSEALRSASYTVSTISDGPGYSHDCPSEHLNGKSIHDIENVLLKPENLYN
Chain of Human CGRP Receptor (O60894 27-148): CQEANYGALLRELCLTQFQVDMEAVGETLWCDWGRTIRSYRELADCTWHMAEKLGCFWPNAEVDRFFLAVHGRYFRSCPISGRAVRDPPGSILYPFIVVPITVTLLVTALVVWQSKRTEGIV
In the case of `CC(C)(C)OC(=O)N[C@@H]1c2nccnc2[C@H](NC(=O)N2CCC(n3c(OCOCC[Si](C)(C)C)nc4ncccc43)CC2)CC[C@H]1c1cccc(F)c1F` [Example 5, tert-butyl (5S,6S,9R)-6-(2,3-difluorophenyl)-9-(4-(2-((2-(trimethylsilyl)ethoxy)methoxy)-1H-imidazo[4,5-b]pyridin-1-yl)piperidine-1-carboxamido)-6,7,8,9-tetrahydro-5H-cyclohepta[b]pyrazin-5-ylcarbamate], the IC50 is 74 nM.
For `N[C@@H]1c2nccnc2[C@H](OC(=O)N2CCC(n3c(=O)[nH]c4ncccc43)CC2)CC[C@H]1c1cccc(F)c1F` [Example 4, (5R,8S,9S)-9-amino-8-(2,3-difluorophenyl)-6,7,8,9-tetrahydro-5H-cyclohepta[b]pyrazin-5-yl 4-(2-oxo-2,3-dihydro-1H-imidazo[4,5-b]pyridin-1-yl)piperidine-1-carboxylate], the IC50 is 0.11 nM.
`N[C@@H]1c2sc(C(F)(F)F)nc2[C@H](OC(=O)N2CCC(n3c(=O)[nH]c4ncccc43)CC2)CC[C@H]1c1cccc(F)c1F` [Example 9, (4R,7S,8S)-8-amino-7-(2,3-difluorophenyl)-2-(trifluoromethyl)-5,6,7,8-tetrahydro-4H-cyclohepta[d]thiazol-4-yl 4-(2-oxo-2,3-dihydro-1H-imidazo[4,5-b]pyridin-1-yl)piperidine-1-carboxylate] displayed an IC50 of 0.13 nM.
Turning to `CC(C)(C)OC(=O)N[C@@H]1c2nccnc2[C@H](NC(=O)N2CCC(n3c(=O)n(COCC[Si](C)(C)C)c4ncccc43)CC2)CC[C@H]1c1cccc(F)c1F` [Example 6, tert-butyl (5S,6S,9R)-6-(2,3-difluorophenyl)-9-(4-(2-oxo-3-((2-(trimethylsilyl)ethoxy)methyl)-2,3-dihydro-1H-imidazo[4,5-b]pyridin-1-yl)piperidine-1-carboxamido)-6,7,8,9-tetrahydro-5H-cyclohepta[b]pyrazin-5-ylcarbamate], the IC50 amounted to 910 nM.
In the case of `CC(C)(C)OC(=O)N[C@@H]1c2nccnc2[C@H](OC(=O)N2CCC(n3c(=O)[nH]c4ncccc43)CC2)CC[C@H]1c1cccc(F)c1F` [Example 3, (5R,8S,9S)-9-(tert-butoxycarbonylamino)-8-(2,3-difluorophenyl)-6,7,8,9-tetrahydro-5H-cyclohepta[b]pyrazin-5-yl 4-(2-oxo-2,3-dihydro-1H-imidazo[4,5-b]pyridin-1-yl)piperidine-1-carboxylate] it was 1.1 nM.
Molecule `N[C@@H]1c2scnc2[C@H](OC(=O)N2CCC(n3c(=O)[nH]c4ncccc43)CC2)CC[C@H]1c1cccc(F)c1F` [Example 8, (4R,7S,8S)-8-amino-7-(2,3-difluorophenyl)-5,6,7,8-tetrahydro-4H-cyclohepta[d]thiazol-4-yl 4-(2-oxo-2,3-dihydro-1H-imidazo[4,5-b]pyridin-1-yl)piperidine-1-carboxylate] had an IC50 of 0.095 nM.
For the molecule `CC(C)(C)OC(=O)N[C@@H]1c2nccnc2C(CC(=O)N2CCC(n3c(=O)[nH]c4ncccc43)CC2)=CC[C@H]1c1cccc(F)c1F` [Example 1, tert-butyl (5S,6S,Z)-6-(2,3-difluorophenyl)-9-(2-oxo-2-(4-(2-oxo-2,3-dihydro-1H-imidazo[4,5-b]pyridin-1-yl)piperidin-1-yl)ethyl)-6,7-dihydro-5H-cyclohepta[b]pyrazin-5-ylcarbamate], the IC50 was determined as 570 nM.
For `N[C@@H]1c2nccnc2C(CC(=O)N2CCC(n3c(=O)[nH]c4ncccc43)CC2)=CC[C@H]1c1cccc(F)c1F` [Example 2, 1-(1-(2-((5S,6S,Z)-5-amino-6-(2,3-difluorophenyl)-6,7-dihydro-5H-cyclohepta[b]pyrazin-9-yl)acetyl)piperidin-4-yl)-1H-imidazo[4,5-b]pyridin-2(3H)-one] the value was 470 nM; for `N[C@@H]1c2nccnc2[C@H](NC(=O)N2CCC(n3c(=O)[nH]c4ncccc43)CC2)CC[C@H]1c1cccc(F)c1F` [Example 7, N-((5R,8S,9S)-9-amino-8-(2,3-difluorophenyl)-6,7,8,9-tetrahydro-5H-cyclohepta[b]pyrazin-5-yl)-4-(2-oxo-2,3-dihydro-1H-imidazo[4,5-b]pyridin-1-yl)piperidine-1-carboxamide], 1.1 nM.
